Reference: patent US9334263B2, “Compositions useful for treating disorders related to kit” (BLUEPRINT MEDICINES CORPORATION, priority 2013, dated 2016)

Key:
[1] = molecular target: T1, D816V Kit (Homo sapiens, UniProt P10721, D816V); test: Kit D816V assay at Km (Caliper electrophoretic mobility shift); type: biochemical; settings: 15 uM ATP, 25 C, 90 minutes
T1 construct: purchased Carna Bioscience 08-156
Method: In order to assess the activity of chemical compounds against the relevant kinase of interest, the Caliper LifeSciences electrophoretic mobility shift technology platform is used. Fluorescently labeled substrate peptide is incubated in the presence of kinase and ATP so that a […] proportion of the peptide is phosphorylated. At the end of the reaction, the mix of phosphorylated (product) and non-phosphorylated (substrate) peptides are passed through the microfluidic system of the Caliper EZ Reader 2, under an applied potential difference. The presence of the phosphate group on the product peptide provides a difference in mass and charge between those of the substrate peptide, resulting in a separation of the substrate and product pools in the sample. As the pools pass a LEDS within the instrument, these pools are detected and resolved as separate peaks. The ratio between these peaks therefore reflects the activity of the chemical matter at that concentration in that well, under those conditions.
The reaction was stopped by the addition of 70 ul of Stop buffer (100 mM HEPES pH 7.5, 0.015% Brij 35, 35 mM EDTA and 0.2% of Coating Reagent 3 (Caliper Lifesciences)). The plate was then read on a Caliper EZReader 2 (protocol settings: −1.9 psi, upstream voltage −700, downstream voltage −3000, post sample sip 35 s).

[2] = molecular target: T2, Kit D816V (HMC1.2 cells, Kit V560G and D816V) (Homo sapiens, UniProt P10721, D816V/V560G); test: HMC1.2 autophosphorylation assay (AlphaLISA, phospho-Y719 c-Kit); type: cell-based; settings: Kit autophosphorylation at tyrosine 719, 90 minutes, read-out: Cellular Activity
T2 construct: endogenous in cells; host or cells: HMC1.2 cells
Method: HMC1.2 Autophosphorylation Assay:
10,000 HMC1.2 cells were incubated in 22 ul culture media (phenol-red free IMDM, no serum) in each well of a 384-well plate and serum starved overnight in a tissue culture incubator (5% CO2, 37° C.). A 10-point dose concentration series of compound (25 uM-95.4 pM) were then added to the cells in a volume of 3.1 ul to each well (0.25% DMSO final concentration). After 90 minutes, 6 ul of 5× AlphaLISA Lysis Buffer (Perkin Elmer) supplemented with a protease and phosphatase inhibitor cocktail (Cell Signaling Technologies) was added to each well and shaken at 450 rpm for 15 minutes at 4° C. 10 ul of phospho-Y719 c-Kit and total c-Kit antibodies (15 nM final concentration, Cell Signaling Technologies) and 50 ug/ml AlphaLISA rabbit acceptor beads (Perkin Elmer) were added to each well and shaken at 300 rpm at room temperature for 2 hours. 10 ul of 100 ug/ml streptavidin donor beads (Perkin Elmer) were added to each well, blocked from light with aluminum adhesive and shaken at 300 rpm at room temperature for 2 hours. Fluorescence signal was obtained on Envision (Perkin Elmer) by AlphaScreen 384 well HTS protocol.
This cell line contains Kit mutated at positions V560G and D816V resulting in constitutive activation of the kinase. The following compounds were tested in an assay to measure direct inhibition of Kit D816V kinase activity by assaying Kit autophosphorylation at tyrosine 719 on the Kit protein.

T2 sequence (P10721 26-976 V560G/D816V): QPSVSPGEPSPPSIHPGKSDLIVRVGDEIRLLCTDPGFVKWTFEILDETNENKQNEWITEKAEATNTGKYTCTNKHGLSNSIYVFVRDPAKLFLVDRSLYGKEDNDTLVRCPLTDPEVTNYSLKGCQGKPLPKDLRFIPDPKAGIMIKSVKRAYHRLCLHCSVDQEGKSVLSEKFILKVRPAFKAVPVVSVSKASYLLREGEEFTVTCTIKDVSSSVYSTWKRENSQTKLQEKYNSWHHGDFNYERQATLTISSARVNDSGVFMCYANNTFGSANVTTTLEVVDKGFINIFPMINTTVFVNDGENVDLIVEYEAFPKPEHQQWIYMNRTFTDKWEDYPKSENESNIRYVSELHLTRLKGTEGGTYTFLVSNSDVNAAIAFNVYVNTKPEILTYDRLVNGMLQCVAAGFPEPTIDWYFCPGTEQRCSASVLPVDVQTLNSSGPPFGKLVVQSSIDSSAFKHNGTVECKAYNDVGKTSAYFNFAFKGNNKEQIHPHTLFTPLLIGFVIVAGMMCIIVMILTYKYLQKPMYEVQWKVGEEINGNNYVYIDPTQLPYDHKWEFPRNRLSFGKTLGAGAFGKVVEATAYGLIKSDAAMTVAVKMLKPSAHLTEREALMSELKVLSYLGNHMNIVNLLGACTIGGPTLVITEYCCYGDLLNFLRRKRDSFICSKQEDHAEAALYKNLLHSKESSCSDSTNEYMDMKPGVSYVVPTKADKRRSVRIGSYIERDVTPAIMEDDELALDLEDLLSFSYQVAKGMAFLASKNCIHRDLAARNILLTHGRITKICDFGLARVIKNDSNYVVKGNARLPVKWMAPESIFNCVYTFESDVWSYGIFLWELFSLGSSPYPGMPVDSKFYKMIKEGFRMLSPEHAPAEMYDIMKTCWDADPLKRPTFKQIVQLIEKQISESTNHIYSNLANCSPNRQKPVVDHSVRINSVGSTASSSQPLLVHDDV
T1 sequence (P10721 26-976 D816V): as the sequence (P10721 26-976 V560G/D816V) above, with G535V counted along it

Row | SMILES | IC50 [1] [nM] | IC50 [2] [nM]
1 | OC1(c2ccc(Nc3ncnc(N4CCN(c5ncc(Cc6ccccc6)cn5)CC4)n3)cc2)CCCCC1 [Compound 155] | 1.01 to 10 | 10 to 100
2 | c1ccc(Cc2cnc(N3CCN(c4ncnc(Nc5cnn(C6CNC6)c5)n4)CC3)nc2)cc1 [Compound 27] | 1.01 to 10 | 10 to 100
3 | CC(O)(c1ccccc1)c1cnc(N2CCN(c3ncnc(Nc4cnn(C[C@@H]5CNCCO5)c4)n3)CC2)nc1 (some centres unmarked) [Compound 250] | < 1 | 10 to 100
4 | Cc1nn(C[C@H](C)O)cc1Nc1ncnc(N2CCN(c3ncc(Sc4ccc(F)cc4)cn3)CC2)n1 [Compound 152] | < 1 | < 10
5 | C[C@](N)(c1ccc(F)cc1)c1cnc(N2CCN(c3ncnc(Nc4ccc(N5CCC[C@H](O)C5)cc4)n3)CC2)nc1 [Compound 275] | < 1 | 10 to 100
6 | Cc1c(Nc2ncnc(N3CCN(c4ncc(Sc5ccccc5F)cn4)[C@H](C)C3)n2)cnn1C[C@H](O)CO [Compound 264] | 1.01 to 10 | 100 to 1000
7 | c1ccc(Cc2cnc(N3CCN(c4ncnc(Nc5ccc6cn[nH]c6c5)n4)CC3)nc2)cc1 [Compound 21] | 1.01 to 10 | 100 to 1000
8 | Cc1cc(N2CCNCC2)ccc1Nc1ncnc(N2CCN(c3ncc(Cc4ccccc4)c(N)n3)CC2)n1 [Compound 228] | 1.01 to 10 | 100 to 1000
9 | Cc1c(Nc2ncnc(N3CCN(c4ncc(Sc5ccc(F)cc5)cn4)CC3)n2)cnn1C[C@H](C)O [Compound 151] | 1.01 to 10 | 10 to 100
10 | CCN1CCO[C@H](Cn2cc(Nc3ncnc(N4CCN(c5ncc(Cc6ccccc6)cn5)CC4)n3)cn2)C1 [Compound 241] | 1.01 to 10 | 10 to 100
11 | Cc1c(Nc2ncnc(N3CCN(c4ncc(C(C)c5ccccc5)cn4)CC3)n2)cnn1C[C@@H]1CNCCO1 (some centres unmarked) [Compound 243] | 1.01 to 10 | 10 to 100
12 | OC[C@H](O)COc1cccc(Nc2ncnc(N3CCN(c4ncc(Cc5ccccc5)cn4)CC3)n2)c1 [Compound 132] | < 1 | 10 to 100
13 | OC[C@H](O)Cn1cc(Nc2ncnc(N3CCN(c4ncc(Cc5ccccc5)cn4)CC3)n2)cn1 [Compound 66] | < 1 | 10 to 100
14 | Cn1cc(Nc2ncnc(N3CCN(c4ncc([C@@](C)(O)c5ccc(F)cc5)cn4)CC3)n2)cn1 (single isomer, unassigned) [Compound 38] | < 1 | 10 to 100
15 | OC[C@H](O)c1ccc(Nc2ncnc(N3CCN(c4ncc(Cc5ccc(F)cc5)cn4)CC3)n2)cc1 [Compound 93] | < 1 | 10 to 100
16 | Cn1cc(Nc2ncnc(N3CCN(c4ncc([C@@](C)(N)c5ccc(F)cc5)cn4)CC3)n2)cn1 [Compound 36] | < 1 | < 10
17 | Fc1ccc(Oc2cnc(N3CCN(c4ncnc(Nc5cnn(C[C@@H]6CNCCO6)c5)n4)CC3)nc2)cc1 [Compound 202] | 1.01 to 10 | 100 to 1000
18 | Cc1c(Nc2ncnc(N3CCN(c4ncc(Cc5ccccc5)cn4)CC3)n2)cnn1C[C@@H]1CNCCO1 [Compound 185] | 1.01 to 10 | 10 to 100
19 | Cc1nn(C[C@H](C)O)cc1Nc1ncnc(N2CCN(c3ncc(Sc4ccccc4F)cn3)CC2)n1 [Compound 153] | < 1 | 10 to 100
20 | Fc1ccc(Cc2cnc(N3CCN(c4ncnc(Nc5ccc6c(c5)CNCC6)n4)CC3)nc2)cc1F [Compound 139] | 1.01 to 10 | 10 to 100
21 | Cc1c(Nc2ncnc(N3CCN(c4ncc(Sc5ccccc5F)cn4)CC3)n2)cnn1C1COC1 [Compound 147] | 1.01 to 10 | 100 to 1000
22 | OC[C@@H](O)Cn1cc(Nc2ncnc(N3CCN(c4ncc(Cc5ccccc5)cn4)CC3)n2)cn1 [Compound 65] | < 1 | 10 to 100

Row | SMILES | IC50 [1] [nM] | IC50 [2] [nM]
23 | CC(C)(O)Cn1cc(Nc2ncnc(N3CCN(c4ncc(C(C)(C)c5ccc(F)cc5)cn4)CC3)n2)cn1 [Compound 201] | < 1 | 10 to 100
24 | Cc1nn(CC(C)(C)O)cc1Nc1ncnc(N2CCN(c3ncc(Sc4ccccc4F)cn3)CC2)n1 [Compound 209] | < 1 | 10 to 100
25 | Fc1cc(O[C@H]2CCCNC2)ccc1Nc1ncnc(N2CCN(c3ncc(Cc4ccccc4)cn3)CC2)n1 [Compound 238] | 1.01 to 10 | 100 to 1000
26 | OCCNc1ccc(Nc2ncnc(N3CCN(c4ncc(Cc5ccccc5)cn4)CC3)n2)cn1 [Compound 58] | 1.01 to 10 | 100 to 1000
27 | OC[C@@H](O)COc1ccc(Nc2ncnc(N3CCN(c4ncc(Cc5ccccc5)cn4)CC3)n2)cc1 [Compound 129] | 1.01 to 10 | 10 to 100
28 | Cc1c(Nc2ncnc(N3CCN(c4ncc(Sc5ccccc5F)cn4)CC3)n2)cnn1CC(C)(C)O [Compound 210] | < 1 | 10 to 100
29 | Cc1c(Nc2ncnc(N3CCN(c4ncc(Cc5ccccc5)cn4)[C@H](C)C3)n2)cnn1C[C@@H]1CNCCO1 [Compound 242] | < 1 | 10 to 100
30 | c1ccc(Cc2cnc(N3CCN(c4ncnc(Nc5ccc(OC6CNC6)cc5)n4)CC3)nc2)cc1 [Compound 77] | 1.01 to 10 | 10 to 100
31 | Brc1cnc(N2CCN(c3ncnc(Nc4cnn(C[C@@H]5CNCCO5)c4)n3)CC2)nc1 [Compound 91] | 1.01 to 10 | 1000 to 10000
32 | C[C@H](O)Cn1cc(Nc2ncnc(N3CCN(c4ncc(Cc5ccccc5)cn4)CC3)n2)cn1 [Compound 33] | 1.01 to 10 | 10 to 100
33 | Cc1c(Nc2ncnc(N3CCN(c4ncc([C@@](C)(O)c5ccc(F)cc5)cn4)CC3)n2)cnn1C[C@@H]1CNCCO1 [Compound 276] | 1.01 to 10 | 10 to 100
34 | Fc1cccc(Sc2cnc(N3CCN(c4ncnc(Nc5cnn(C[C@@H]6CNCCO6)c5)n4)CC3)nc2)c1 [Compound 257] | 1.01 to 10 | 100 to 1000
35 | CC1(O)CCCN(c2ccc(Nc3ncnc(N4CCN(c5ncc(Cc6ccccc6)cn5)CC4)n3)cc2)C1 (centres unmarked) [Compound 225] | 1.01 to 10 | 10 to 100
36 | C[C@@]1(O)CCCN(c2ccc(Nc3ncnc(N4CCN(c5ncc(Cc6ccccc6)cn5)CC4)n3)cc2)C1 [Compound 227] | 1.01 to 10 | 10 to 100
37 | Fc1ccccc1Sc1cnc(N2CCN(c3ncnc(Nc4ccc(C5CNCCO5)cc4)n3)CC2)nc1 (centres unmarked) [Compound 251] | 1.01 to 10 | 100 to 1000
38 | C[C@](O)(c1ccccc1)c1cnc(N2CCN(c3ncnc(Nc4ccc(N5CCOCC5)cc4)n3)CC2)nc1 [Compound 235] | < 1 | < 10
39 | Nc1nc(N2CCN(c3ncnc(Nc4cnn(CC5CNCCO5)c4)n3)CC2)ncc1Cl (centres unmarked) [Compound 34] | 10 to 100 | 1000 to 10000
40 | COc1cc(Nc2ncnc(N3CCN(c4ncc(Cc5ccccc5)cn4)CC3)n2)ccn1 [Compound 17] | 1.01 to 10 | 1000 to 10000
41 | CC(C)(c1ccc(F)cc1)c1cnc(N2CCN(c3ncnc(Nc4cnn(C[C@@H]5CNCCO5)c4)n3)CC2)nc1 [Compound 267] | < 1 | 10 to 100
42 | C[C@H](c1ccccc1)c1cnc(N2CCN(c3ncnc(Nc4ccc(N5CCC[C@@H](O)C5)cc4)n3)CC2)nc1 [Compound 223] | 1.01 to 10 | 10 to 100
43 | CN1CCC(CCNc2ncnc(N3CCN(c4ncc(Cc5ccccc5)cn4)CC3)n2)CC1 [Compound 35] | > 100 | > 10000
